Assay results from patent US6352985B1, “Benzimidazole compounds” (Fujisawa Pharmaceutical Co., Ltd., priority 1995, dated 2002).

Tests used:
[1] = system: 3T3-L1 cells (pre-adipocytes); test: Stimulatory activity of triglyceride (TG) accumulation in 3T3-L1 cells (pre-adipocytes); assay type: cell-based; details: test compound 1 × 10^−5 M with insulin; 1×10^−6 M pioglitazone defined as 100%, insulin (+) without the chemical agent defined as 0%
Description: Stimulatory activity of triglyceride (TG) accumulation in 3T3-L1 cells (pre-adipocytes)
3T3-L1 cells just before a confluent state were prepared in an F75 flask. The medium was removed, and the residue was washed twice with 5 ml of PBS (−). The cells were detached using a solution of EDTA and trypsin. Ten milliliters of the medium were added thereto to form a suspension. This suspension was collected in a 50-milliliter centrifuge tube, and was subjected to centrifugation at 1,000 rpm for 5 minutes. Thus, the cells were precipitated, and the supernatant was removed. The cells were re-suspended in 20 ml of the medium, and the number of cells was counted. The suspension was adjusted such that the concentration of the cells reached 6×10^4 cells/ml, and was inoculated into a 24-well plate in an amount of 1 ml/well. In this state, the incubation was conducted in an incubator at 37° C. in 5% CO2 for 2 days.
A solution of 1-mM dexamethasone and 500-mM IBMX was prepared in DMSO. […]
Four to five days after the addition of the test chemical agent and the insulin solution, the 24-well plate was withdrawn from the incubator. […] Subsequently, the residue was extracted twice with isopropyl alcohol, and TG was measured at a wavelength of 410 nm using a TG-measuring kit (acetyl-acetone method). […]

[2] = system: db/db mice; test: Test for activity of decreasing plasma glucose using db/db mice; assay type: in vivo; details: female db/db mice, difference between db/db and +/+ mouse defined as 100%
Description: Test for activity of decreasing plasma glucose using db/db mice
Five-week-old female mice [C57BL/KsJ-dbm db+/db+, C57BL/KsJ-dbm +m/+m (Jackson Laboratory) were purchased, and were kept for 2 to 3 weeks. Then, these mice were used in the test.
A test compound was mixed with a powdered chow (CE-2, made by Nippon Clea) using a mortar. According to the amount of food intake of the mouse, the mixing ratios, 0.1%, 0.03%, and 0.01% corresponded to 100, 30, and 10 mg/kg body weight, respectively. The mixed chow was changed twice a week. The feed amount and the remaining amount were recorded, and the intake was calculated from the difference therebetween.
The female db/db mice were grouped according to the body weight, the plasma glucose and the plasma triglyceride concentrations. Then, the mixture containing the test compound was administered to the mice for 14 days (from 8 to 10 weeks old). […] Plasma glucose, triglyceride, and insulin concentrations were measured on day 0 and day 14 as well as plasma glucose and triglyceride concentrations on day 7. The body weight was measured on day 0, day 7, and day 14. […]
The plasma glucose was measured by a glucose oxidase method (Glucose CII-Test Wako made by Wako Pure Chemical Industries, Ltd.) using from 10 to 15 μl of plasma. The plasma triglyceride concentration was measured by a GPO-p-chlorophenol method (Triglyceride G-Test Wako made by Wako Pure Chemical Industries, Ltd.) or a GPO-DAOS method (Triglyceride E-Test Wako) using from 10 to 15 μl of plasma. […] The plasma insulin concentration was measured by radio immuno assay method (Phadesef Insulin RIA Kit made by Cabi Pharmacia) using 20 μl of plasma (which can be stored at −20° C.).
The difference in the plasma glucose and the plasma triglyceride concentrations betweeen the db/db mouse and the +/+ mouse was defined as 100%, and the rate (%) of decrease in the plasma glucose and the plasma triglyceride concentrations of the group to which the test compound was administered was calculated.

[3] = dose 30 mg/kg mixed with powdered chow for 14 days

melting point	SMILES	also measured
332 to 335 °C (dec.)	Cc1nc2ccc(C(=O)NS(=O)(=O)C(F)(F)F)cc2n1Cc1ccccc1Cl.Cl	
279 to 282 °C	CCCc1nc2ccc(C(=O)NS(=O)(=O)c3ccccc3)cc2n1Cc1ccc(-c2ccccc2)cc1.[K]	
348 to 352 °C (dec.)	Cc1nc2ccc(C(=O)NS(=O)(=O)c3cccc4cccnc34)cc2n1Cc1ccccc1Cl.[Na]	
220.8 to 224.8 °C	O=C(NS(=O)(=O)c1ccccc1)c1ccc2nc(C3CC3)n(Cc3ccc(-c4ccccc4)cc3)c2c1.[K]	
243.1 to 244.3 °C	Cc1nc2ccc(C=CC(=O)NS(=O)(=O)c3ccccc3)cc2n1Cc1ccccc1Cl [Compound (178), N-benzenesulfonyl-3-[1-(2-chlorobenzyl)-2-methylbenzimidazol-6-yl]acrylamide]	
193 to 196 °C	Cc1nc2ccc(C(=O)NS(=O)(=O)Cc3ccccc3)cc2n1Cc1ccccc1Cl [Compound (218), 1-(2-chlorobenzyl)-2-methyl-6-(α-toluenesulfonylcarbamoyl)benzimidazole]	
266.5 to 267.5 °C	Cc1ccc(C)c(S(=O)(=O)NC(=O)c2ccc3nc(C)n(Cc4ccccc4Cl)c3c2)c1 [Compound (219), 1-(2-chlorobenzyl)-6-(2,5-dimethylbenzenesulfonylcarbamoyl)-2-methylbenzimidazole]	
264 to 267 °C	Cc1nc2ccc(C(=O)NS(=O)(=O)c3ccccc3Cl)cc2n1Cc1ccccc1Cl.N [Compound (222), 6-(2-chlorobenzenesulfonylcarbamoyl)-1-(2-chlorobenzyl)-2-methylbenzimidazole ammonium salt]	
229.8 to 233 °C	Cc1nc2ccc(CCC(=O)NS(=O)(=O)c3ccccc3)cc2n1Cc1ccccc1Cl [Compound (266), N-benzenesulfonyl-3-[1-(2-chlorobenzyl)-2-methylbenzimidazole-6-yl]propionamide]	
111 to 112.4 °C	CCCCS(=O)(=O)NC(=O)c1ccc2nc(C)n(Cc3ccc(C(=O)c4ccccc4)cc3)c2c1 [Compound (373), 1-[(4-benzoyl)benzyl]-6-(1-butanesulfonylcarbamoyl)-2-methylbenzimidazole]	
254 to 256 °C	CCCCS(=O)(=O)NC(=O)c1ccc2nc(O)n(Cc3ccc(Cl)cc3Cl)c2c1 [Compound (379), 6-(1-butanesulfonylcarbamoyl)-1-(2,4-dichlorobenzyl)-2-hydroxybenzimidazole]	

Second part, the compound before the results:

SMILES	melting point	also measured
Cc1nc2ccc(C(=O)NS(=O)(=O)c3ccc4ccccc4c3)cc2n1Cc1ccccc1Cl.[Na]	352 to 354.5 °C	
Cc1nc2ccc(C(=O)NS(=O)(=O)c3ccc(Cl)cc3)cc2n1Cc1ccccc1Cl.[Na]	360 to 362 °C (dec.)	
CC(C)c1nc2ccc(C(=O)NS(=O)(=O)c3ccccc3)cc2n1Cc1ccc(-c2ccccc2)cc1.[K]	310.1 to 312.7 °C	
Cc1nc2ccc(C(=O)NS(=O)(=O)c3ccc(C(C)(C)C)cc3)cc2n1Cc1ccccc1Cl.[Na]	359.5 to 362 °C	
O=C(NS(=O)(=O)Cc1ccccc1)c1ccc2nc(C3CC3)n(Cc3ccccc3F)c2c1 [6-benzylsulfonylcarbamoyl-2-cyclopropyl-1-(2-fluorobenzyl)benzimidazole]		Stimulatory activity of TG accumulation (%) [1]: 38.2%
Cc1nc2ccc(C(=O)NS(=O)(=O)c3ccccc3)cc2n1Cc1ccccc1Cl [Compound (163), 6-benzenesulfonylcarbamoyl-1-(2-chlorobenzyl)-2-methylbenzimidazole]	273.5 to 274.3 °C	Activity of decreasing plasma glucose (%) [2, 3]: 72%
CCCCS(=O)(=O)NC(=O)c1ccc2nc(C)n(Cc3ccc(-c4ccccc4)cc3)c2c1 [Compound (172), 1-(biphenyl-4-ylmethyl)-6-(1-butanesulfonylcarbamoyl)-2-methylbenzimidazole]		Activity of decreasing plasma glucose (%) ([2]; dose 10 mg/kg mixed with powdered chow for 14 days): 70-80%
O=C(NS(=O)(=O)c1ccccc1)c1ccc2nc(C3CC3)n(Cc3ccccc3F)c2c1 [Compound (177), 6-benzenesulfonylcarbamoyl-2-cyclopropyl-1-(2-fluorobenzyl)benzimidazole]		Activity of decreasing plasma glucose (%) [2, 3]: 34.5%
Cc1nc2ccc(C(=O)NS(=O)(=O)c3cccc(Cl)c3)cc2n1Cc1ccccc1Cl [Compound (209), 6-(3-chlorobenzenesulfonylcarbamoyl)-1-(2-chlorobenzyl)-2-methylbenzimidazole]	254.5 to 257.5 °C (dec.)	
COc1ccc(S(=O)(=O)NC(=O)c2ccc3nc(C)n(Cc4ccccc4Cl)c3c2)cc1 [Compound (217), 1-(2-chlorobenzyl)-6-(4-methoxybenzenesulfonylcarbamoyl)-2-methylbenzimidazole]	271 to 274 °C	
Cc1nc2ccc(C(=O)NS(=O)(=O)c3ccc([N+](=O)[O-])cc3)cc2n1Cc1ccccc1Cl [Compound (220), 1-(2-chlorobenzyl)-2-methyl-6-(4-nitrobenzenesulfonylcarbamoyl)benzimidazole]	330 to 332 °C	
Cc1nc2ccc(C(=O)NS(=O)(=O)c3ccc(C(F)(F)F)cc3)cc2n1Cc1ccccc1Cl [Compound (221), 1-(2-chlorobenzyl)-2-methyl-6-[4-(trifluoromethyl)benzenesulfonylcarbamoyl]benzimidazole]	288 to 292 °C	
CNc1nc2ccc(C(=O)NS(=O)(=O)c3ccccc3)cc2n1Cc1ccc(-c2ccccc2)cc1 [Compound (230), 6-benzenesulfonylcarbamoyl-1-(biphenyl-4-ylmethyl)-2-methylaminobenzimidazole]	225 to 228 °C	
Nc1nc2ccc(C(=O)NS(=O)(=O)c3ccccc3)cc2n1Cc1ccc(-c2ccccc2)cc1 [Compound (231), 2-amino-6-benzenesulfonylcarbamoyl-1-(biphenyl-4-ylmethyl)benzimidazole]	352.5 to 355 °C	
